From publication PMC10716780, “The multistep oxidation of cholesterol to pregnenolone by human cytochrome P450 11A1 is highly processive” (The Journal of Biological Chemistry, 2023)
Where two headings read alike, the source gives them in different places.

Biological target: T1, human P450 11A1 (Homo sapiens, UniProt P05108)
T1 sequence (P05108 41-521 limits assumed): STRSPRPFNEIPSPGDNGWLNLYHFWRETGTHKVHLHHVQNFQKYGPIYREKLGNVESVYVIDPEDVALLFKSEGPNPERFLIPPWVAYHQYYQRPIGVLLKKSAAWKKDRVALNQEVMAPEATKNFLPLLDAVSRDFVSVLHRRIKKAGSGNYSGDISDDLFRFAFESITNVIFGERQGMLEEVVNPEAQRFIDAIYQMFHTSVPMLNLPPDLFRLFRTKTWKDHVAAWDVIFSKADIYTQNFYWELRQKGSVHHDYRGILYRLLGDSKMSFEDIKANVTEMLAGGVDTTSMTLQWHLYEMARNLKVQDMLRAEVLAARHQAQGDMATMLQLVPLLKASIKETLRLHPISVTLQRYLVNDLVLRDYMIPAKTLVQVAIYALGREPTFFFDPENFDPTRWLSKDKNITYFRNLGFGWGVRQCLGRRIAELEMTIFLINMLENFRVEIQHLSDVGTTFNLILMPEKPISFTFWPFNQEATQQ
T1 sequence (P00257 59-186 partner): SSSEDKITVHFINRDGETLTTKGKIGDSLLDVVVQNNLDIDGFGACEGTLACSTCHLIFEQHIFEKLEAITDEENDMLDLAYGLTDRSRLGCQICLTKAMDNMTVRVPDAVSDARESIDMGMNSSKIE
Test: Kinetic modeling of single-turnover reactions (KinTek Explorer)
Format: biochemical
Design: M A S T R S P R P F N E I P S P G D N; Met-Ala (N-terminal start residues in place of the transit peptide and Ile40) (N); made in house; host or cells: E. coli (P450 11A1 in C41(DE3); Adx and AdR in E. coli)
Details: for k^+ of oxidation step of enzyme-bound sterol, high Adx: high Adx (50 μM); for k^+ of oxidation step of enzyme-bound sterol, high Adx / k^+ of oxidation step of enzyme-bound sterol, low Adx: adjusted to fit single-turnover data; for k^+ of oxidation step of enzyme-bound sterol, low Adx: low Adx (5 μM)
Description: A minimal kinetic model was assembled to fit the data of the single-turnover reactions (Fig. 9) using the parameters listed in Table 2 (Fig. 14). […] Each oxidation reaction is irreversible, and thus the rates of the reverse reactions (k-2, k-4, k-6) were set to zero. The single-turnover data (Fig. 9) were fit to a single exponential to calculate the first-order decay of cholesterol, that is, the rate of cholesterol 22R-hydroxylation (k2). […] The rate of 20R-hydroxylation of 22R-OH cholesterol (k4) was estimated similarly to k2 from exponential fitting of first-order formation of the 20R,22R-(OH)2 sterol from the 22R-OH sterol.
Data were imported into KinTek Explorer software (v. 11.01, KinTek, https://kintekcorp.com/software) ([63]) as txt files and processed using an Apple computer (operating system 11.6.2). The indicated kinetic model (Table 2) was used with the enzyme and substrate concentrations, first estimating the rate of disappearance of the substrate cholesterol.

[1] = read-out: k^+ for ligand binding to P450 11A1 (kon) used in model, set to the value determined for P450 11A1 and ketoconazole
[2] = read-out: k^− for ligand dissociation (koff) used in model, values measured by stopped-flow spectroscopy

| k^+ for ligand binding to P450 11A1 (kon) used in model (set to the value determined for P450 11A1 and ketoconazole, listed as R) [M⁻¹ s⁻¹] | kon (set to the value determined for P450 11A1 and ketoconazole, read-out: k^+ for ligand binding to P450 11A1 (kon) used in model) [M⁻¹ s⁻¹] | koff (values measured by stopped-flow spectroscopy, read-out: k^− for ligand dissociation (koff) used in model) [s⁻¹] | Compound | k^+ of oxidation step of enzyme-bound sterol, high Adx [s⁻¹] | k^+ of oxidation step of enzyme-bound sterol, low Adx [s⁻¹] | kon [1] [M⁻¹ s⁻¹] | koff (read-out: k^− for ligand dissociation (koff) used in model) [s⁻¹] | k^+ for ligand binding to P450 11A1 (kon) used in model (set to the value determined for P450 11A1 and ketoconazole, listed as Q) [M⁻¹ s⁻¹] | koff [2] [s⁻¹] | k^+ for ligand binding to P450 11A1 (kon) used in model (set to the value determined for P450 11A1 and ketoconazole, listed as P) [M⁻¹ s⁻¹] | k^− for ligand dissociation (koff) used in model (values measured by stopped-flow spectroscopy, listed as P) [s⁻¹] | k^+ for ligand binding to P450 11A1 (kon) used in model (set to the value determined for P450 11A1 and ketoconazole, listed as S) [M⁻¹ s⁻¹] |
| --- | --- | --- | --- | --- | --- | --- | --- | --- | --- | --- | --- | --- |
| – | – | – | CC(C)CC[C@@H](O)[C@](C)(O)[C@H]1CC[C@H]2[C@@H]3CC=C4C[C@@H](O)CC[C@]4(C)[C@H]3CC[C@]12C [20R,22R-(OH)2 Chol, (20R,22R)-Cholest-5-ene-3β,20,22-triol] | 1.7 | 0.55 | 500000 | 0.39 | 530000 | – | – | – | – |
| – | – | – | CC(C)CC[C@@H](O)[C@@H](C)[C@H]1CC[C@H]2[C@@H]3CC=C4C[C@@H](O)CC[C@]4(C)[C@H]3CC[C@]12C [22R-OH Chol, 22R-hydroxycholesterol] | 1.5 | 0.4 | 500000 | – | – | 0.04 | 530000 | 0.044 | – |
| – | – | – | CC(C)CCC[C@@H](C)[C@H]1CC[C@H]2[C@@H]3CC=C4C[C@@H](O)CC[C@]4(C)[C@H]3CC[C@]12C [Cholesterol] | 0.12 | 0.04 | 500000 | – | – | 0.24 | – | – | 530000 |
| 530000 | 500000 | 0.55 | CC(=O)[C@H]1CC[C@H]2[C@@H]3CC=C4C[C@@H](O)CC[C@]4(C)[C@H]3CC[C@]12C [Pregnenolone] | – | – | – | – | – | – | – | – | – |
